For one assay, the system named is ABC1. Briefly: Combinatorial activity in LUAD cell line ABC1. The class given is cell-based. The note with it: Homo sapiens, ABC-1; ABC1, WT; single agent; read-out: (nM) s.a. As for the experimental part: (§1) Combinatorial activity of PF-07104091 and PF-07220060 was assessed in LUADs as single agents (s.a.) or in combination.
For a further assay, the system named is NCI-2291. Briefly: Combinatorial activity in LUAD cell line NCI-2291. The class given is cell-based. The conditions noted are these: NCI-2291, KRAS G12C/F/V; single agent; read-out: (nM) s.a. As for the experimental part:
as §1

Another assay has as its system NCIH1944. Briefly: Combinatorial activity in LUAD cell line NCIH1944. In kind it is cell-based. The note with it: Homo sapiens, NCI-H1944; NCIH1944, KRAS G13D; single agent; read-out: (nM) s.a. As for the experimental part: as §1
Assay [1] has as its system HCC1428 breast cancer model. Briefly: In vivo efficacy, HR+/HER2− HCC1428 breast cancer model (Example 4). The conditions noted are these: HCC1428, Day 42; PO BID: PF-07104091 120 mpk, PF-07220060 60 mpk, PF-06873600 30 mpk, palbociclib 10 mpk; fulvestrant 10 mpk SC. Also noted: species or system NSG mice. The procedure: (§2) Female NSG mice (Jackson Lab) were subcutaneously implanted with fragment (27 mm^3 to 64 mm^3 size) into the dorsal region. All mice for HCC1428, MCF7 and ST941 PBR studies were supplemented with 8.5 μg/mL estradiol water (β-Estradiol Sigma-Aldrich, cat #E2758-5G) and gave ad libitum till end of study. For the in vivo efficacy studies, tumor volume and body weights were measured twice a week. Tumor volume was calculated using the [(Length×Width×Width)/2)] formula. TGI was calculated as 100*(1−ΔT/ΔC). The ΔC (ΔT) was obtained by subtracting the mean tumor burden in the vehicle (treated) group on the first day of treatment (Day 0) from the mean tumor burden in vehicle (treated) group on the assessment day. Statistical analysis was performed using ANCOVA when the mean tumor volume in vehicle treated mice reached tumor cutoff size.
(§3) The HCC1428 model was established by implanting passage 1 tumor fragments into recipient mice. To establish the HCC1428 donor mice, tumor cells (5×10^6 cell/mouse with 50% Cultrex® Basement Membrane Matrix) were subcutaneously implanted in female NSG mice. Once reaching a range of 700 to 800 mm^3, donor tumors were subsequently transplanted into secondary recipient mice for a study expansion. […] PF-07104091 (lot 022), PF-07220060 (lot CPo126812-01-SY-5700-01), PF-06873600 (lot 022) and PD-0332991 (lot GR08498) were administered (PO) BID (7 hr apart) while fulvestrant (lot 20160224-2) at 10 mg/kg, SC twice in the first week, then weekly afterwards. All mice received treatment continuously until Day 42. TGI was assessed on Day 42 post first dose.

Another assay has as its system ST941 PBR PDX model. Briefly: In vivo efficacy, palbociclib-resistant ST941 PBR PDX model (Example 4). The note with it: ST941PBR, Day 28; PO BID: PF-07104091 120 mpk, PF-07220060 60 mpk, PF-06873600 30 mpk, palbociclib 10 mpk; fulvestrant 10 mpk SC. Also noted: species or system NSG mice. The procedure: as §2
We established model in house by continuous treatment of the ST941 PBR tumor bearing mice with PD-0332991 at 50 mg/kg, PO QD plus fulvestrant at 10 mg/kg, SC twice in the first week, then weekly thereafter. To propagate donors for the TGI study, tumors were transplanted to recipient mice. One week after the re-implantation, the recipient mice received continuous treatment with palbociclib plus fulvestrant (dosing schedule described above). After 1 to 2 serial in vivo propagation with the same treatment regimen, the resistant tumors in the range of 700 to 800 mm^3 were re-implanted for a study expansion. The remaining tumor fragments were viably frozen for future use.
The live donor mice were established by implanting ST941 PBR (p13) tumor fragments. Once reaching a range of 700 to 800 mm^3, the donor tumors were subsequently transplanted into secondary recipient mice for a study expansion. To maintain the resistant clones, the ST941 PBR tumor bearing mice were treated with PD-0332991 at 50 mg/kg, PO. QD plus fulvestrant at 10 mg/kg, SC twice in the first week, then weekly afterwards for 10 weeks. The treatment was initiated one week after the implant until day of randomization for study enrollment. […] PF-07104091 (lot 021), PF-07220060 (lot CPo126812-01-SY-5700-01), PF-06873600 (lot 022) and PD-0332991 (lot GR08498) were administered (PO) BID (7 hr apart) while fulvestrant (lot 20160224-2) at 10 mg/kg, SC twice in the first week, then weekly afterwards. All mice received treatment continuously until Day 28. TGI was assessed on Day 28 post first dose.

A further assay deals with MCF7 breast cancer model. Briefly: In vivo efficacy, HR+/HER2− MCF7 breast cancer model (Example 4). The note with it: MCF7, Day 29; PO BID: PF-07104091 120 mpk, PF-07220060 60 mpk, PF-06873600 30 mpk, palbociclib 10 mpk; fulvestrant 10 mpk SC. More on the design: species or system NSG mice. The procedure:
as §2
as §3, with “MCF7” for “HCC1428”, “donor” for “passage 1”, “29.” for “42.”, “29” for “42”, “dose” for “dose.”

Another assay concerns NCIH2126. Kind of assay: Combinatorial activity in LUAD cell line NCIH2126. The class given is cell-based. The conditions noted are these: Homo sapiens, NCI-H2126; NCIH2126, WT; single agent; read-out: (nM) s.a. As for the experimental part:
as §1

The next assay has as its system NCIH2228 (RB mut). Briefly: Combinatorial activity in LUAD cell line NCIH2228. In kind it is cell-based. The note with it: Homo sapiens, NCI-H2228, WT, single agent, read-out: (nM) s.a. As for the experimental part:
as §1

As to `COCc1cc(C(=O)Nc2cc([C@H]3CC[C@@H](OC(=O)NC(C)C)C3)[nH]n2)n(C)n1` [PF-07104091, (1R,3S)-3-[3-({[3-(methoxymethyl)-1-methyl-1H-pyrazol-5-yl]carbonyl}amino)-1H-pyrazol-5-yl]cyclopentyl propan-2-ylcarbamate], the IC50 with ABC1 is 716 nM; in the assay on NCI-2291, about 1200 nM; in the assay on NCIH1944 it was 227 nM; in the assay on NCIH2126, 372 nM; in the assay on NCIH2228 (RB mut) it was about 1000 nM. The TGI % came to 79% in assay [1], 36% in the assay with ST941 PBR PDX model and 60% in the assay on MCF7 breast cancer model.
Consider `CC(C)n1c(C(C)(C)O)nc2c(F)cc(-c3nc(N[C@@H]4CCOC[C@H]4O)ncc3Cl)cc21` [PF-07220060, 1,5-anhydro-3-({5-chloro-4-[4-fluoro-2-(2-hydroxypropan-2-yl)-1-(propan-2-yl)-1H-benzimidazol-6-yl]pyrimidin-2-yl}amino)-2,3-dideoxy-D-threo-pentitol], for which the IC50 with ABC1 was 408 nM; in the assay with NCI-2291, 138 nM; in the assay on NCIH1944 it was 398 nM; with NCIH2126, 255 nM; with NCIH2228 (RB mut), 839 nM. Further, the TGI % was 70% in assay [1], 19% with ST941 PBR PDX model and 79% in the assay with MCF7 breast cancer model.

These data come from US20250041277A1, “METHODS AND DOSING REGIMENS COMPRISING A CDK2 INHIBITOR AND A CDK4 INHIBITOR FOR TREATING CANCER” (PFIZER INC., priority 2021, published 2025).
